# From PMC12589487, “Molecular basis of vitamin K-dependent protein γ-glutamyl carboxylation” (Cell Research, 2025)
# Experiments:
# [1] = molecular target: T1, GGCX•FIX complex (Homo sapiens, UniProt P38435); assay: cryo-EM structure, […] Å; assay type: binding
# T1 construct: GGCX co-expressed with full-length FIX in HEK293F cells, cryo-EM in detergent micelle; FIX propeptide and GLA domain (residues 29-92) resolved; WT and K217A/K218A GGCX; with Coagulation factor IX
# [2] = molecular target: T2, GGCX^AA•FX complex (Homo sapiens, UniProt P38435, K217A/K218A); assay: cryo-EM structure, […] Å; assay type: binding; conditions: catalytically inactive GGCX double mutant
# T2 construct: GGCX K217A/K218A double mutant in complex with FX, cryo-EM; with Coagulation factor X
# T2 sequence (P38435 whole entry K217A/K218A): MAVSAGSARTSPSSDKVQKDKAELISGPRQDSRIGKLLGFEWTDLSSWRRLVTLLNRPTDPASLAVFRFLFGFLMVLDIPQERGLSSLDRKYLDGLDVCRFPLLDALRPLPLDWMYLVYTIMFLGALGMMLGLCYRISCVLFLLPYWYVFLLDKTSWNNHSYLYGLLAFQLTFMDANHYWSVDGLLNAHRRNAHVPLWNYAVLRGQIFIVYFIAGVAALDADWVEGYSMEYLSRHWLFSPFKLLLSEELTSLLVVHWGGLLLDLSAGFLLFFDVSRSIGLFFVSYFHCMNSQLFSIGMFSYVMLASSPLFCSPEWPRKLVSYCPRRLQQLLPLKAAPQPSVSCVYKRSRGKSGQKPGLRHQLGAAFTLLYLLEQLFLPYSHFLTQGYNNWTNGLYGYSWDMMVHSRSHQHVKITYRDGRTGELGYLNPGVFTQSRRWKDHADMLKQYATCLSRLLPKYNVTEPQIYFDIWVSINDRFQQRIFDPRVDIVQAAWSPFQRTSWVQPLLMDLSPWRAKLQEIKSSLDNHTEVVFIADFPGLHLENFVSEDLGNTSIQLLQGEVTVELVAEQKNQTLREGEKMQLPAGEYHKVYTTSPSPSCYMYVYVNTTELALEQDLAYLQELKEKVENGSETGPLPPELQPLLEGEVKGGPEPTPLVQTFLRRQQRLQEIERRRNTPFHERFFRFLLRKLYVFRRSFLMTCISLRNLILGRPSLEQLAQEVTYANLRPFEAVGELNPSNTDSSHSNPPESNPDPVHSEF
# T2 sequence (P00742 32-488 partner limits assumed): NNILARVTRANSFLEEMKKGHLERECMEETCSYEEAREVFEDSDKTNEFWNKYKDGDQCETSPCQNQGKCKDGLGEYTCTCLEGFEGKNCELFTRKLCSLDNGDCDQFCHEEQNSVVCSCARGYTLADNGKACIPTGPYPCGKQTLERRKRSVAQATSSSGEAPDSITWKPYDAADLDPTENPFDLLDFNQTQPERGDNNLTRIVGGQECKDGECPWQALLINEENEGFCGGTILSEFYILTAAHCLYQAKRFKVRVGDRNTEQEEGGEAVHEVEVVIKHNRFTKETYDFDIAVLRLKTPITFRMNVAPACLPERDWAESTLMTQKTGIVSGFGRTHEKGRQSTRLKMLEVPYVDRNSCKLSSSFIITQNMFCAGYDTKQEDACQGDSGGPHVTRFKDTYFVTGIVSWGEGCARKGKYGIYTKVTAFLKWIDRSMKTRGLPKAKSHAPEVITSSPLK
# [3] = molecular target: T3, GGCX•FIX complex (Homo sapiens, UniProt P38435, K217A/K218A); assay: cryo-EM structure, […] Å; assay type: binding; conditions: catalytically inactive GGCX double mutant
# T3 construct: GGCX co-expressed with full-length FIX in HEK293F cells, cryo-EM in detergent micelle; FIX propeptide and GLA domain (residues 29-92) resolved; WT and K217A/K218A GGCX; with Coagulation factor IX
# T3 sequence (P38435 whole entry K217A/K218A, the tested form may be a part): as the sequence (P38435 whole entry K217A/K218A) above
# T3 sequence (P00740 29-461 partner): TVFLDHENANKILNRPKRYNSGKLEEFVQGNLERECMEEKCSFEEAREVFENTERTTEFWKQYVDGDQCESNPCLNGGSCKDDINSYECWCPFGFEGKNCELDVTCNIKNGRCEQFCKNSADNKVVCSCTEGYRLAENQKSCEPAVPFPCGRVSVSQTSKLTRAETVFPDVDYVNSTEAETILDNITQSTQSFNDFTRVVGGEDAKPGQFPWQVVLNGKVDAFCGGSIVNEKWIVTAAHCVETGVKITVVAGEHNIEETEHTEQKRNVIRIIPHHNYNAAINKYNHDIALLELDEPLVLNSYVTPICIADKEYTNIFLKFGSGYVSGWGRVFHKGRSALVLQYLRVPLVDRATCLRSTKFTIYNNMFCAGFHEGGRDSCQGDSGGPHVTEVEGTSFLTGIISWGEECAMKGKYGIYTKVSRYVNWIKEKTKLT
# [4] = molecular target: T4, GGCX (Homo sapiens, UniProt P38435); assay: binding assay, method not told in main text (Fig. S9); conditions: homologue not told in main text
# T4 construct: Flag-tagged GGCX used in pull-downs
# T4 sequence (P38435 2-758): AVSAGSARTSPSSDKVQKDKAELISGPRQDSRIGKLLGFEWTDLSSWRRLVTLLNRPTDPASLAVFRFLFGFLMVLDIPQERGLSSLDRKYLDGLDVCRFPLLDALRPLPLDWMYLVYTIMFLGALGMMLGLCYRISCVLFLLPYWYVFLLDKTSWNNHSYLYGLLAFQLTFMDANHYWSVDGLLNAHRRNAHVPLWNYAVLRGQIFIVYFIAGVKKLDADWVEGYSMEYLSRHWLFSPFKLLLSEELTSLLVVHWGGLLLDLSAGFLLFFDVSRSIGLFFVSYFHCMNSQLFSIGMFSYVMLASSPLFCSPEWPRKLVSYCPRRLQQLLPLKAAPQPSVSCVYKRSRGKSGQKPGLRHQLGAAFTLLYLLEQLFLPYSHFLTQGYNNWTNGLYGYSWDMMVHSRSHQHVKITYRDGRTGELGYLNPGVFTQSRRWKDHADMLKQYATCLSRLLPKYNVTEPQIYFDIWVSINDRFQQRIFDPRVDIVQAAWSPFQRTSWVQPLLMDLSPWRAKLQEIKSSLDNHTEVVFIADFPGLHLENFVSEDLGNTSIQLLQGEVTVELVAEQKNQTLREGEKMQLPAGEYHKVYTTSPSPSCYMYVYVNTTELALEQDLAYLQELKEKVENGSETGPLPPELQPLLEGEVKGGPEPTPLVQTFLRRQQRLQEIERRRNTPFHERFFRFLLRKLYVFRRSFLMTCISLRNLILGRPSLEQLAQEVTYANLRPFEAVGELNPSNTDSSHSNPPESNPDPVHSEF
# [5] = molecular target: T4, GGCX; assay: binding assay, method not told in main text (Fig. S8); conditions: form and homologue of vitamin K not told in main text
# T1 sequence (P38435 whole entry, the tested form may be a part): as the sequence (P38435 whole entry K217A/K218A) above, with A217K, A218K counted along it
# T1 sequence (P00740 29-461 partner): as the sequence (P00740 29-461 partner) above
compound,measurement,setting,value
CC(C)=CCC/C(C)=C/CC/C(C)=C/CC/C(C)=C/Cc1c(C)c(O)c2ccccc2c1O [MKH2-4],"cryo-EM structure, 2.78 Å","[1]; co-purified endogenous vitamin K, MK-4 by LC-MS/MS, ligand modelled by superposition with the K217A/K218A complex",Superimposing GGCX^WT•FIX onto GGCX^AA•FIX facilitated modeling of MKH2-4 into the WT binding pocket
same,"cryo-EM structure, 2.58 Å",[2],unambiguous assignment of the bound molecule as MK-4 hydroquinone (MKH2-4)
same,"cryo-EM structure, 2.59 Å",[3],unambiguous assignment of the bound molecule as MK-4 hydroquinone (MKH2-4)
CC(C)CCC[C@@H](C)[C@H]1CC[C@H]2[C@@H]3CC=C4C[C@@H](O)CC[C@]4(C)[C@H]3CC[C@]12C [cholesterol],"cryo-EM structure, 2.78 Å","[1]; co-purified lipid, which deposited model holds it is not told explicitly",A well-resolved co-purified cholesterol was also observed
VKO,Kd,[4],~8.19 µM
vitamin K,Kd,[5],~0.85 µM
